Consider six compounds from patent publication US10568822B2, “Melanogenesis inhibitor comprising d-pantothenyl alcohol, and skin-whitening cosmetic containing same melanogenesis inhibitor” (POLA CHEMICAL INDUSTRIES, INC., priority 2014, dated 2020).

For one experiment, the system named is human normal melanocytes. Put plainly: Melanogenesis inhibition experiment (14C-2-thiouracil incorporation). In kind it is cell-based. The conditions noted are these: for Melanin Amount (%) Sample (2): 1% plant extract or 0.1 μg/mL existing skin-whitening compound alone, ratio to control; for synergistic effect of a melanogenesis inhibitory action: in combination with D-pantothenyl alcohol, conclusion from Table 2. As for the experimental part:
According to the method described below, 2-thiouracil (^14C-labeled 2-thiouracil in the present test) which is specifically incorporated into melanin in the melanin synthesis process within cells was used to evaluate the melanogenesis inhibitory action. With a complete medium for melanocyte culture (Invitrogen Corporation) used in a 24-well plate, human normal melanocytes (Kurabo Industries, Ltd.) were seeded in each well at a concentration of 6.0×10^4 cells/well/0.5 mL. Under a 5% carbon dioxide atmosphere, the culture was conducted at 37° C. for 24 hours. Then, replacement was made such that a 0.5 mL medium containing D-pantothenyl alcohol at 0 mM or 1 mM was in each of three wells for each concentration and, to these […] wells, 0.5 μCi/well of 2-[2-^14C] thiouracil (Daiichi Clarity Co., Ltd.) was further added. And it was further cultured for 3 days under the same conditions as the aforementioned culture conditions. After completion of the culture, the culture medium was removed from each well, which was washed with PBS (phosphate-buffered saline), and the number of cells was measured using the WST-8 reagent (Dojindo Laboratories). The WST-8 reagent was removed from each well, which was washed with PBS, and using 100 (w/v) % trichloroacetic acid (Wako Pure Chemical Industries, Ltd.), the cells were separated from the bottom of the wells, to which water was then added for dilution so that the concentration of the trichloroacetic acid could be 10 (w/v) %, and which were allowed to stand in a refrigerator for 30 minutes. After the cells were recovered by centrifugation, the amount of ^14C-thiouracil in the cells recovered from each well was measured with a liquid scintillation counter (Aloka Co., Ltd.).
Relative to the radiation doses of the cells cultured in the media containing 0 mM D-pantothenyl alcohol (control), the radiation doses of the cells cultured in the media containing 1 mM D-pantothenyl alcohol were each obtained in percentage as the amount of melanin (%). In other words, it is possible to determine that the smaller the radiation dose incorporated into each cell is, the smaller the amount of melanin is, and accordingly, it is possible to determine that the melanin inhibition titer of the added ingredient is larger.
(§1) While 0 mM or 0 μM D-pantothenyl alcohol was used as a control similarly, the 1 mM D-pantothenyl alcohol in <Experiment 1> was replaced with each of the following samples (1) to (3) for experimenting.

In experiment [1] the test system is human normal keratinocytes. Put plainly: Keratinocyte cell proliferation experiment (WST-8). The experiment is classed as cell-based. Conditions: for Cell Proliferation Rate (%) Sample (2): 1% plant extract or 0.1 μg/mL existing skin-whitening compound alone, ratio to control; for synergistic effect of a keratinocyte cell proliferation action: in combination with D-pantothenyl alcohol, conclusion from Table 2. As to the method: According to the method described below, the cell proliferation promoting action was evaluated. With a complete medium for keratinocyte culture (Kurabo Industries, Ltd.) used in a 24-well plate, human normal keratinocytes (Kurabo Industries, Ltd.) were seeded in each well at a concentration of 1.0×10^4 cells/well/1 mL. Under a 5% carbon dioxide atmosphere, the culture was conducted at 37° C. for 24 hours. Then, replacement was made such that a 1 mL medium containing D-pantothenyl alcohol at 0 μM, 15 μM, or 150 μM was in each of three wells for each concentration. And it was further cultured for 2 days under the same conditions as the aforementioned culture conditions. After completion of the culture, 20 μL of the WST-8 reagent (Dojindo Laboratories) was added to each well, and color reaction was allowed at 37° C. for 3 hours. After the reaction, absorbances at 450 nm and 650 nm were measured using a microplate reader, Benchmark Plus (Bio-Rad Laboratories), and the 450 nm absorbance measurement minus the 650 nm absorbance measurement was calculated to give a cell proliferation measurement.
Relative to the cell proliferation measurements for the wells cultured in the media containing 0 μM D-pantothenyl alcohol (control), the cell proliferation measurements for the wells cultured in the media containing D-pantothenyl alcohol were each obtained in percentage as a cell proliferation rate (%). In other words, it is possible to determine that the larger the absorbance value is, the higher the cell proliferation rate is, and accordingly, it is possible to determine that the cell proliferation promotion titer of the added ingredients is larger.
as §1
In addition, the 15 μM and the 150 μM D-pantothenyl alcohol in <Experiment 2> were replaced with the aforementioned samples (1) to (3) respectively for experimenting. Note that the amount of melanin (%) and the cell proliferation rate (%) in Table 2 are both a ratio to the control, as described in Experiment 1 and Experiment 2.
Background: Tetrazolium dyes change colour on reduction, which living cells bring about.

Take `O=C(N[C@@H](CO)C(=O)O)c1ccccc1` [Compound 31, N-benzoyl-L-serine]: in the experiment with human normal melanocytes, the “Melanin Amount (%) Sample (2)” value was found to be 94.6% and the “synergistic effect of a melanogenesis inhibitory action” value is listed as “synergistic effect”. In experiment [1], the “Cell Proliferation Rate (%) Sample (2)” value is on record as 118.7% and the “synergistic effect of a keratinocyte cell proliferation action” value is reported as “synergistic effect”.

Consider `CCCCc1ccc(O)cc1O` [4-n-butyl resorcinol], for which, in the experiment with human normal melanocytes, the “Melanin Amount (%) Sample (2)” value is listed as 93.2% and the “synergistic effect of a melanogenesis inhibitory action” value is “synergistic effect”. In addition, in experiment [1], the “Cell Proliferation Rate (%) Sample (2)” value is on record as 120.3% and the “synergistic effect of a keratinocyte cell proliferation action” value was “synergistic effect”.

On to `c1ccc(C(c2ccccc2)(c2ccccc2)n2ccnc2)cc1` [Compound 1, 1-(triphenylmethyl) imidazole], for which, in the experiment on human normal melanocytes, the “Melanin Amount (%) Sample (2)” value stood at 93.1% and the “synergistic effect of a melanogenesis inhibitory action” value was “synergistic effect”. Besides, in experiment [1], the “Cell Proliferation Rate (%) Sample (2)” value stood at 112.1% and the “synergistic effect of a keratinocyte cell proliferation action” value was “synergistic effect”.

Regarding `CC(C)(CO)[C@@H](O)C(=O)NCCCO` [D-pantothenyl alcohol], in the experiment on human normal melanocytes (1 mM D-pantothenyl alcohol alone, ratio to 0 mM control), the “Melanin Amount (%) Sample (1)” value came to 69.8%. The melanogenesis inhibitory action result with human normal melanocytes (Experiment 1, 1 mM vs 0 mM, FIG. 1, result in words) is recorded as “has a melanogenesis inhibitory action”. Further, the “Cell Proliferation Rate (%) Sample (1)” value in experiment [1] (1 mM D-pantothenyl alcohol alone, ratio to 0 μM control) was 123.3%. Also, the “keratinocyte cell proliferation action” value in experiment [1] (Experiment 2, 15 μM or 150 μM vs 0 μM, FIG. 2, result in words) is given as “has a keratinocyte cell proliferation action”.

As for `CSCCC(NC(=O)c1ccc(C)cc1)C(=O)O` (stereo not shown) [Compound 45, N-(toluyl) methionine], the “Melanin Amount (%) Sample (2)” value in the experiment on human normal melanocytes is recorded as 93.4%. Besides, in experiment [1], the “Cell Proliferation Rate (%) Sample (2)” value is recorded as 113.2%.

Regarding `C[C@H]1[C@H](C)CC[C@]2(C(=O)O)CC[C@]3(C)C(=CC[C@@H]4[C@@]5(C)CCC(OP(=O)(O)O)C(C)(C)[C@@H]5CC[C@]43C)[C@H]12` (stereo partly shown) [Ursolic acid phosphate ester, ursolic acid phosphate ester], in the experiment with human normal melanocytes, the “Melanin Amount (%) Sample (2)” value came out at 98.4% and the “synergistic effect of a melanogenesis inhibitory action” value is “synergistic effect”. Also, in experiment [1], the “Cell Proliferation Rate (%) Sample (2)” value came out at 118.6% and the “synergistic effect of a keratinocyte cell proliferation action” value is given as “synergistic effect”.
